Results from ChEMBL document CHEMBL3603744, “Structure activity relationship of C-2 ether substituted 1,5-naphthyridine analogs of oxabicyclooctane-linked novel bacterial topoisomerase inhibitors as broad-spectrum antibacterial agents (Part-5)” (Bioorg Med Chem Lett, 2015).
In brackets after ≈: the same amount, converted by molar mass. Activity calls are given as the source filed them. The rule behind the calls is not given here.

How the values were obtained:
Staphylococcus aureus [1] = test: Antimicrobial activity against Staphylococcus aureus infected in iv dosed mouse bacteremia survival model; type: functional
Staphylococcus aureus [2] = test: Antimicrobial activity against Staphylococcus aureus infected in orally dosed mouse bacteremia survival model; type: functional; conditions: po
Staphylococcus aureus [3] = test: Antimicrobial activity against Staphylococcus aureus Smith by micro broth dilution or agar based method; type: functional
Streptococcus pneumoniae = test: Antimicrobial activity against Streptococcus pneumoniae IID553 by micro broth dilution or agar based method; type: functional
Enterococcus faecium = test: Antimicrobial activity against vancomycin-resistant Enterococcus faecium VanA by micro broth dilution or agar based method; type: functional
Escherichia coli = test: Antimicrobial activity against Escherichia coli ATCC 25922 by micro broth dilution or agar based method; type: functional
Acinetobacter baumannii = test: Antimicrobial activity against Acinetobacter baumannii IID876 by micro broth dilution or agar based method; type: functional
Pseudomonas aeruginosa = test: Antimicrobial activity against Pseudomonas aeruginosa PAO1 by micro broth dilution or agar based method; type: functional
Staphylococcus aureus [4] = test: Antimicrobial activity against methicillin-resistant Staphylococcus aureus OIT971 by micro broth dilution or agar based method; type: functional, organism-based
Staphylococcus aureus [5] = test: Resistance index, ratio of MIC for quinolone-resistant Staphylococcus aureus MS5935 to MIC for quinolone-[…]; type: functional
Mus musculus = test: Dose normalized AUC in C57BL/6 mouse at 2 mg/kg, iv or 5 mg/kg, po; type: ADME, organism-based; conditions: in vivo
[6] = Plasma clearance in C57BL/6 mouse at 2 mg/kg, iv or 5 mg/kg, po; type: ADME, organism-based
[7] = Volume of distribution at steady state in C57BL/6 mouse at 2 mg/kg, iv or 5 mg/kg, po; type: ADME, organism-based; conditions: in vivo, read-out: Vdss
[8] = Half life in C57BL/6 mouse at 2 mg/kg, iv or 5 mg/kg, po; type: ADME, organism-based; conditions: in vivo
[9] = Oral bioavailability in C57BL/6 mouse at 5 mg/kg; type: ADME, organism-based; conditions: in vivo
Rattus norvegicus = test: Dose normalized AUC in Sprague-Dawley rat at 2 mg/kg, iv or 5 mg/kg, po; type: ADME, organism-based; conditions: in vivo
[10] = Plasma clearance in Sprague-Dawley rat at 2 mg/kg, iv or 5 mg/kg, po; type: ADME, organism-based
[11] = Volume of distribution at steady state in Sprague-Dawley rat at 2 mg/kg, iv or 5 mg/kg, po; type: ADME, organism-based; conditions: in vivo, read-out: Vdss
[12] = Half life in Sprague-Dawley rat at 2 mg/kg, iv or 5 mg/kg, po; type: ADME, organism-based; conditions: in vivo
[13] = Oral bioavailability in Sprague-Dawley rat at 5 mg/kg; type: ADME, organism-based; conditions: in vivo
Staphylococcus aureus [14] = test: Antimicrobial activity against quinolone-resistant Staphylococcus aureus MS5935; type: functional
Staphylococcus aureus [15] = test: Antimicrobial activity against quinolone-sensitive Staphylococcus aureus MS5935

Molecule `Cl.NCCCOc1ccc2ncc(F)c(CCC34CCC(NCc5ccc6c(n5)NC(=O)CO6)(CC3)CO4)c2n1` has an ED50 (Staphylococcus aureus [1]) of 15 mg/kg and an ED50 (Staphylococcus aureus [2]) of over 50 mg/kg.
In the case of `COCCOc1ccc2ncc(F)c(CCC34CCC(NCc5ccc6c(n5)NC(=O)CO6)(CC3)CO4)c2n1.Cl`, the ED50 (Staphylococcus aureus [1]) is reported as 7.2 mg/kg.
For `CC(C)COc1ccc2ncc(F)c(CCC34CCC(NCc5ccc6c(n5)NC(=O)CO6)(CC3)CO4)c2n1`, the MIC (Staphylococcus aureus [3]) was 0.063 mg/L (≈ 0.118 µM), the MIC (Streptococcus pneumoniae) was 0.25 mg/L (≈ 0.467 µM) and the MIC (Enterococcus faecium) was 4 mg/L (≈ 7.47 µM). It also gave an MIC (Escherichia coli) of 16 mg/L (≈ 29.9 µM), an MIC (Acinetobacter baumannii) of 2 mg/L (≈ 3.73 µM) and an MIC (Pseudomonas aeruginosa) of 16 mg/L (≈ 29.9 µM). The “growth inhibition (GI)” value (Staphylococcus aureus [4]) was “Active” and the Ratio (Staphylococcus aureus [5]) was under 4.
`O=C1COc2ccc(CNC34CCC(CCc5c(F)cnc6ccc(OCCOCCO)nc56)(CC3)OC4)nc2N1` gave an MIC (Staphylococcus aureus [3]) of 0.25 mg/L (≈ 0.44 µM), an MIC (Streptococcus pneumoniae) of 4 mg/L (≈ 7.05 µM) and an MIC (Enterococcus faecium) of 16 mg/L (≈ 28.2 µM). For the same molecule, the MIC (Escherichia coli) was 32 mg/L (≈ 56.4 µM), the MIC (Acinetobacter baumannii) was 16 mg/L (≈ 28.2 µM) and the MIC (Pseudomonas aeruginosa) was 32 mg/L (≈ 56.4 µM). The “growth inhibition (GI)” value (Staphylococcus aureus [4]) was “Active” and the Ratio (Staphylococcus aureus [5]) was under 4.
With `Cl.O=C1COc2ccc(CNC34CCC(CCc5c(F)cnc6ccc(OCCCO)nc56)(CC3)OC4)nc2N1` the ED50 (Staphylococcus aureus [1]) was 5.9 mg/kg, the ED50 (Staphylococcus aureus [2]) was 15 mg/kg and the AUC/dose (Mus musculus) was 1.6 µM·h/mg/kg. It also gave a clearance [6] of 2.32 L/h/kg, a Vd [7] of 1.46 L/kg and a half-life [8] of 1.5 h. The bioavailability [9] was 16%, the AUC/dose (Rattus norvegicus) was 1.9 µM·h/mg/kg and the clearance [10] was 1.99 L/h/kg. The Vd [11] was 0.84 L/kg, the half-life [12] was 0.58 h and the bioavailability [13] was 49%.
`CNC(=O)COc1ccc2ncc(F)c(CCC34CCC(NCc5ccc6c(n5)NC(=O)CO6)(CC3)CO4)c2n1` gave an MIC (Staphylococcus aureus [3]) of 0.125 mg/L (≈ 0.227 µM), an MIC (Streptococcus pneumoniae) of 0.5 mg/L (≈ 0.908 µM) and an MIC (Enterococcus faecium) of 4 mg/L (≈ 7.26 µM). The MIC (Escherichia coli) was 16 mg/L (≈ 29.1 µM), the MIC (Acinetobacter baumannii) was 4 mg/L (≈ 7.26 µM) and the MIC (Pseudomonas aeruginosa) was 16 mg/L (≈ 29.1 µM). For the same molecule, the “growth inhibition (GI)” value (Staphylococcus aureus [4]) was “Active” and the Ratio (Staphylococcus aureus [5]) was under 4.
`Cl.O=C1COc2ccc(CNC34CCC(CCc5c(F)cnc6ccc(OCCO)nc56)(CC3)OC4)nc2N1` showed an ED50 (Staphylococcus aureus [1]) of 13 mg/kg and an ED50 (Staphylococcus aureus [2]) of over 50 mg/kg.
In the case of `Cl.O=C1COc2ccc(CNC34CCC([C@@H](O)Cc5c(F)cnc6ccc(OCCCO)nc56)(CC3)OC4)nc2N1`, the ED50 (Staphylococcus aureus [1]) is reported as 5.5 mg/kg and the ED50 (Staphylococcus aureus [2]) is reported as over 50 mg/kg.
`Cl.O=C1COc2ccc(CNC34CCC(CCc5c(F)cnc6ccc(OCCCCCO)nc56)(CC3)OC4)nc2N1` gave an ED50 (Staphylococcus aureus [1]) of 21 mg/kg and an ED50 (Staphylococcus aureus [2]) of 43 mg/kg.
For `CN(C)C(=O)COc1ccc2ncc(F)c(CCC34CCC(NCc5ccc6c(n5)NC(=O)CO6)(CC3)CO4)c2n1`, the MIC (Staphylococcus aureus [3]) was 1 mg/L (≈ 1.77 µM), the MIC (Streptococcus pneumoniae) was 4 mg/L (≈ 7.08 µM) and the MIC (Enterococcus faecium) was 16 mg/L (≈ 28.3 µM). For the same molecule, the MIC (Escherichia coli) was 16 mg/L (≈ 28.3 µM), the MIC (Acinetobacter baumannii) was 16 mg/L (≈ 28.3 µM) and the MIC (Pseudomonas aeruginosa) was 16 mg/L (≈ 28.3 µM). For the same molecule, the “growth inhibition (GI)” value (Staphylococcus aureus [4]) was “Active” and the Ratio (Staphylococcus aureus [5]) was under 4.
With `COc1ccc2ncc(F)c(CCC34CCC(NCc5ccc6c(n5)NC(=O)CO6)(CC3)CO4)c2n1.Cl` the ED50 (Staphylococcus aureus [1]) was 5.5 mg/kg and the ED50 (Staphylococcus aureus [2]) was 17 mg/kg.
In the case of `C[C@H]1COc2c(N3CCN(C)CC3)c(F)cc3c(=O)c(C(=O)O)cn1c23.C[C@H]1COc2c(N3CCN(C)CC3)c(F)cc3c(=O)c(C(=O)O)cn1c23.O` [LEVOFLOXACIN], the Ratio (Staphylococcus aureus [5]) is reported as over 64, the MIC (Staphylococcus aureus [14]) is reported as over 16 mg/L and the MIC (Staphylococcus aureus [15]) is reported as 0.25 mg/L.
`NCCCCCOc1ccc2ncc(F)c(CCC34CCC(NCc5ccc6c(n5)NC(=O)CO6)(CC3)CO4)c2n1` showed an MIC (Staphylococcus aureus [3]) of 0.5 mg/L (≈ 0.885 µM), an MIC (Streptococcus pneumoniae) of 1 mg/L (≈ 1.77 µM) and an MIC (Enterococcus faecium) of 8 mg/L (≈ 14.2 µM). It also gave an MIC (Escherichia coli) of 4 mg/L (≈ 7.08 µM), an MIC (Acinetobacter baumannii) of 4 mg/L (≈ 7.08 µM) and an MIC (Pseudomonas aeruginosa) of 16 mg/L (≈ 28.3 µM). The “growth inhibition (GI)” value (Staphylococcus aureus [4]) was “Active” and the Ratio (Staphylococcus aureus [5]) was under 4.
For `COc1ccc2ncc(F)c(C[C@H](O)C34CCC(NCc5ccc6c(n5)NC(=O)CO6)(CC3)CO4)c2n1.Cl`, the ED50 (Staphylococcus aureus [1]) was 2.5 mg/kg and the ED50 (Staphylococcus aureus [2]) was 2.2 mg/kg.
Molecule `C=CCOc1ccc2ncc(F)c(CCC34CCC(NCc5ccc6c(n5)NC(=O)CO6)(CC3)CO4)c2n1` has an MIC (Staphylococcus aureus [3]) of 0.063 mg/L (≈ 0.121 µM), an MIC (Streptococcus pneumoniae) of 1 mg/L (≈ 1.92 µM) and an MIC (Enterococcus faecium) of 8 mg/L (≈ 15.4 µM). It also gave an MIC (Escherichia coli) of 8 mg/L (≈ 15.4 µM), an MIC (Acinetobacter baumannii) of 2 mg/L (≈ 3.85 µM) and an MIC (Pseudomonas aeruginosa) of 16 mg/L (≈ 30.8 µM). For the same molecule, the “growth inhibition (GI)” value (Staphylococcus aureus [4]) was “Active” and the Ratio (Staphylococcus aureus [5]) was under 4.
